Structures are written as SMILES.

Common to all, as to type: cell-based
The test system of assay [1] is SW480 (colon cancer). The assay is described as follows: Antiproliferative activity (CCK-8 cell viability), SW480. To be noted: Homo sapiens, 72 h, read-out: Antiproliferative activity in cancerous cells, SW480 (inhibition of cell growth); for inhibition at 3.3 µM: Compound concentration: 3.3 μM; for inhibition at 10 µM: Compound concentration: 10 μM; for inhibition at 30 µM: Compound concentration: 30 μM. The method, boiled down: (§1)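 Cells grown in DMEM (HepG2, SW480), MEM (HeLa) or F-12K (A549), each with 10% FBS, then exposed to compound at 3.3, 10 or 30 μM for 72 h at 37 °C. CCK-8 absorbance at 450 nm; viability expressed as percent of DMSO-treated cells, graded as growth inhibition bands.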

Assay [2] relates to HeLa (cervical cancer). As to the kind of experiment: Antiproliferative activity (CCK-8 cell viability), HeLa. The conditions noted are these: Homo sapiens, 72 h, read-out: Antiproliferative activity in cancerous cells, HELA (inhibition of cell growth); for inhibition at 3.3 µM: Compound concentration: 3.3 μM; for inhibition at 10 µM: Compound concentration: 10 μM; for inhibition at 30 µM: Compound concentration: 30 μM. The method, boiled down: as §1

Assay [3] relates to HepG2 (liver cancer). The assay is described as follows: Antiproliferative activity (CCK-8 cell viability), HepG2. To be noted: Homo sapiens, 72 h, read-out: Antiproliferative activity in cancerous cells, HepG2 (inhibition of cell growth); for inhibition at 3.3 µM: Compound concentration: 3.3 μM; for inhibition at 10 µM: Compound concentration: 10 μM; for inhibition at 30 µM: Compound concentration: 30 μM. The method, boiled down:
as §1

In assay [4] the test system is A431 (epidermoid carcinoma). As to the kind of experiment: Antiproliferative activity (CCK-8 cell viability), A431. To be noted: Homo sapiens, 72 h, read-out: Antiproliferative activity in cancerous cells, A431 (inhibition of cell growth); for inhibition at 3.3 µM: A-431, Compound concentration: 3.3 μM; for inhibition at 10 µM: A-431, Compound concentration: 10 μM; for inhibition at 30 µM: A-431, Compound concentration: 30 μM. The method, boiled down: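 A431 epidermoid carcinoma cells grown in DMEM with 10% FBS were plated at 2,000-5,000 cells/well in 96-well plates. After attachment they were exposed to compound at 3.3 μM, 10 μM, or 30 μM for 72 h at 37° C. Viability was then assessed by CCK-8 against DMSO vehicle-treated wells.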

For assay [5], the system named is B16F10 (malignant melanoma). The assay is described as follows: Antiproliferative activity (CCK-8 cell viability), B16F10. The conditions noted are these: Mus musculus, 72 h, read-out: Antiproliferative activity in cancerous cells, B16F10 (inhibition of cell growth); for inhibition at 3.3 µM: B16-F10, Compound concentration: 3.3 μM; for inhibition at 10 µM: B16-F10, Compound concentration: 10 μM; for inhibition at 30 µM: B16-F10, Compound concentration: 30 μM. The gist of the method:
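B16F10 melanoma cells grown in DMEM with 10% FBS were plated in 96-well plates at 2,000-5,000 cells/well. After attachment they were exposed to compound in medium for 72 h at 37° C. CCK-8 solution (10 μL) was then added, and after 4 h at 37° C absorbance was read at 450 nm.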

The test system of assay [6] is MDA-MB-231 (breast cancer). The assay is described as follows: Antiproliferative activity (CCK-8 cell viability), MDA-MB-231. The conditions noted are these: Homo sapiens, 72 h, read-out: Antiproliferative activity in cancerous cells, MDA-MB-231 (inhibition of cell growth); for inhibition at 3.3 µM: Compound concentration: 3.3 μM; for inhibition at 10 µM: Compound concentration: 10 μM; for inhibition at 30 µM: Compound concentration: 30 μM. The method, boiled down:
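MDA-MB-231 breast cancer cells, grown in DMEM with 10% FBS, were plated in 96-well plates at 2,000-5,000 cells/well. Once attached, they were exposed to compound and incubated at 37° C. for 72 h. Viability was then measured with CCK-8 (10 μL per well, 4 h at 37° C.) by absorbance at 450 nm, relative to DMSO vehicle wells.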

Assay [7] has as its system A549 (lung adenocarcinoma). As to the kind of experiment: Antiproliferative activity (CCK-8 cell viability), A549. The conditions noted are these: Homo sapiens, 72 h, read-out: Antiproliferative activity in cancerous cells, A549 (inhibition of cell growth); for inhibition at 3.3 µM: Compound concentration: 3.3 μM; for inhibition at 10 µM: Compound concentration: 10 μM; for inhibition at 30 µM: Compound concentration: 30 μM. The gist of the method:
as §1

Turning to `CC1=C(CC(=O)O)c2cc(F)ccc2/C1=C\c1ccc(CO)cc1` [D11, (Z)-2-(5-Fluoro-1-(4-(hydroxymethyl)benzylidene)-2-methyl-1H-inden-3-yl)acetic acid], the inhibition (commonly the drop in the measured response relative to a control, in per cent) at 3.3 µM in assay [1] was less than 30%; in assay [2], less than 30%; in assay [3], less than 30%; in assay [4] it was less than 30%; in assay [5], less than 30%; in assay [6] it was not below 50%. Besides, the inhibition at 3.3 µM in assay [7] is less than 30%. The inhibition at 10 µM in assay [1] is not below 50%; in assay [2], less than 30%; in assay [3] it was less than 30%; in assay [4], not below 50%; in assay [5] it was less than 30%; in assay [6], not below 50%. Also, the inhibition at 10 µM in assay [7] was not below 50%. The inhibition at 30 µM in assay [1] was not below 50%; in assay [2], not below 50%; in assay [3], less than 30%; in assay [4] it was not below 50%; in assay [5], less than 30%; in assay [6], not below 50%. In assay [7], the inhibition at 30 µM is not below 50%.
Take `CC1=C(CC(=O)O)c2cc(F)ccc2/C1=C\c1ccc(Oc2ccc(Cl)cc2)cc1Oc1ccc(Cl)cc1` [C79, (Z)-2-(1-(2,4-Bis(4-chlorophenoxy)benzylidene)-5-fluoro-2-methyl-1H-inden-3-yl)acetic acid]: the inhibition at 3.3 µM in assay [1], in assay [2], in assay [3], in assay [4], in assay [5] and in assay [6] was not below 50% throughout. Moreover, the inhibition at 3.3 µM in assay [7] was not below 50%. The inhibition at 10 µM in assay [1], in assay [2], in assay [3], in assay [4], in assay [5] and in assay [6] was not below 50% in each case. Moreover, the inhibition at 10 µM in assay [7] was not below 50%.
With `CC1=C(CC(=O)O)c2cc(Br)ccc2/C1=C/c1ccc(Oc2ccc(Cl)cc2)cc1` [E27, (E)-2-(5-Bromo-1-(4-(4-chlorophenoxy)benzylidene)-2-methyl-1H-inden-3-yl)acetic acid], the inhibition at 3.3 µM in assay [1] was less than 30%; in assay [2], not below 50%; in assay [3], less than 30%; in assay [4], not below 50%; in assay [5], not below 50%; in assay [6], not below 50%. In addition, the inhibition at 3.3 µM in assay [7] was less than 30%. The inhibition at 10 µM in assay [1] is 30 to 50%; in assay [2], not below 50%; in assay [3], not below 50%; in assay [4], not below 50%; in assay [5], not below 50%; in assay [6] it was not below 50%. The inhibition at 10 µM in assay [7] was not below 50%. For the same molecule, the inhibition at 30 µM in assay [1], in assay [2], in assay [3], in assay [4], in assay [5] and in assay [6] was not below 50% in each case. Besides, the inhibition at 30 µM in assay [7] was not below 50%.
With `CC1=C(CC(=O)O)c2cc(F)ccc2/C1=C\c1cccc(CS(=O)(=O)c2ccc(F)cc2)c1` [B51, (Z)-2-(5-Fluoro-1-(3-(((4-fluorophenyl)sulfonyl)methyl)benzylidene)-2-methyl-1H-inden-3-yl)acetic acid], the inhibition at 3.3 µM was less than 30% in assay [1]; 30 to 50% in assay [2]; less than 30% in assay [3]; 30 to 50% in assay [4]; less than 30% in assay [5]; 30 to 50% in assay [6]. In addition, the inhibition at 3.3 µM in assay [7] is less than 30%. The inhibition at 10 µM is 30 to 50% in assay [1]; not below 50% in assay [2]; less than 30% in assay [3]; 30 to 50% in assay [4]; not below 50% in assay [5]; not below 50% in assay [6]. Besides, the inhibition at 10 µM in assay [7] is 30 to 50%.
On to `CC1=C(CC(=O)O)c2cc(Br)ccc2/C1=C\c1cccc(Oc2ccc(Cl)cc2)c1` [C108, (Z)-2-(5-Bromo-1-(3-(4-chlorophenoxy)benzylidene)-2-methyl-1H-inden-3-yl)acetic acid], for which the inhibition at 3.3 µM in assay [1] is less than 30%; in assay [2], less than 30%; in assay [3] it was less than 30%; in assay [4] it was not below 50%; in assay [5] it was not below 50%; in assay [6] it was not below 50%. Further, the inhibition at 3.3 µM in assay [7] was less than 30%. For the same molecule, the inhibition at 10 µM in assay [1] is 30 to 50%; in assay [2], not below 50%; in assay [3], not below 50%; in assay [4], not below 50%; in assay [5] it was not below 50%; in assay [6], not below 50%. Besides, the inhibition at 10 µM in assay [7] is not below 50%.
For `COc1ccc(Oc2cccc(/C=C3/C(C)=C(CC(=O)O)c4cc(F)ccc43)c2)cc1Cl` [C102, (Z)-2-(1-(3-(3-Chloro-4-methoxyphenoxy)benzylidene)-5-fluoro-2-methyl-1H-inden-3-yl)acetic acid], the inhibition at 3.3 µM is less than 30% in assay [1]; less than 30% in assay [2]; not below 50% in assay [3]; not below 50% in assay [4]; not below 50% in assay [5]; not below 50% in assay [6]. The inhibition at 3.3 µM in assay [7] was not below 50%. Further, the inhibition at 10 µM in assay [1], in assay [2], in assay [3], in assay [4], in assay [5] and in assay [6] was not below 50% each time. Moreover, in assay [7], the inhibition at 10 µM is not below 50%.
In the case of `CC1=C(CC(=O)O)c2cc(F)ccc2/C1=C\c1ccc(COCc2ccc(C(F)F)cc2)cc1` [B152, (Z)-2-(1-(4-(((4-(Difluoromethyl)benzyl)oxy)methyl)benzylidene)-5-fluoro-2-methyl-1H-inden-3-yl)acetic acid], the inhibition at 3.3 µM is 30 to 50% in assay [1]; less than 30% in assay [2]; less than 30% in assay [3]; 30 to 50% in assay [4]; less than 30% in assay [5]; less than 30% in assay [6]. Besides, in assay [7], the inhibition at 3.3 µM was less than 30%. Also, the inhibition at 10 µM in assay [1], in assay [2], in assay [3], in assay [4], in assay [5] and in assay [6] was not below 50% throughout. Besides, in assay [7], the inhibition at 10 µM was not below 50%.

Source of the values: US20260184663A1, “INDENE COMPOUNDS, PHARMACEUTICAL COMPOSITIONS THEREOF, AND THEIR THERAPEUTIC APPLICATIONS” (NucMito Pharmaceuticals co. Ltd., priority 2022, published 2026).
